# Assay results from US20050148495A1, “Methods and materials including for treating acne” (priority 2003, published 2005).
# Where two headings read alike, the source gives them in different places.
# Assays:
# [1] = tested on: Enterococcus faccium (VRE); assay: microbe, parasite or virus in culture; details: read-out: Minimum Inhibitory Concentrations
# [2] = tested on: Macrococcus caseolyticus; assay: microbe, parasite or virus in culture; details: Macrococcoides caseolyticum, read-out: Minimum Inhibitory Concentrations
# [3] = tested on: Serratia marcescens; assay: microbe, parasite or virus in culture; format: cell-based; details: Serratia marcescens 13880; read-out: Minimum Inhibitory Concentrations
# Method: (§1) Acne vulgaris may involve a microbial consortium. Although P. acnes may be a prominent member of such a consortium, other uncharacterized bacteria may also participate. The microbial activity of XMP.629 as an acetate gel as described in Example 5 and other commonly used antibiotics was evaluated against a panel of human pathogens using standardized NCCLS protocols. […] Lesser potency was observed against the gram-negative organisms B. fragilis, B. cepacia, P. mirabilis and S. marcescens, which are often refractory to many antimicrobial compounds.
# [4] = tested on: Salmonella ryphimurium; assay: microbe, parasite or virus in culture; format: cell-based; details: Salmonella ryphimurium SL770; read-out: Minimum Inhibitory Concentrations
# Method: as §1
# [5] = tested on: Proteus mirabilis; assay: microbe, parasite or virus in culture; format: cell-based; details: Proteus mirabilis 29852; read-out: Minimum Inhibitory Concentrations
# Method: as §1
# [6] = tested on: Prevotella intermedia; assay: microbe, parasite or virus in culture; format: cell-based; details: Prevotella intermedia 25261; read-out: Minimum Inhibitory Concentrations
# Method: as §1
# [7] = tested on: Actinobacillus actinomycetemcomitans; assay: microbe, parasite or virus in culture; format: cell-based; details: Aggregatibacter actinomycetemcomitans; Actinobacillus actinomycetemcomitans 43718; read-out: Minimum Inhibitory Concentrations
# Method: as §1
# [8] = tested on: Escherichia coli; assay: microbe, parasite or virus in culture; format: cell-based; details: Escherichia coli, read-out: Minimum Inhibitory Concentrations
# Method: as §1
# [9] = tested on: Porphyromonas gingivalis; assay: microbe, parasite or virus in culture; format: cell-based; details: Porphyromonas gingivalis 33277; read-out: Minimum Inhibitory Concentrations
# Method: as §1
# [10] = tested on: Klebsiella pneumoniae; assay: microbe, parasite or virus in culture; format: cell-based; details: Klebsiella pneumoniae, read-out: Minimum Inhibitory Concentrations
# Method: as §1
# [11] = tested on: Burkholderia cepacia; assay: microbe, parasite or virus in culture; format: cell-based; details: Burkholderia cepacia 25416; read-out: Minimum Inhibitory Concentrations
# Method: as §1
# [12] = tested on: Streptococcus pneumoniae; assay: microbe, parasite or virus in culture; details: read-out: Minimum Inhibitory Concentrations
# [13] = tested on: Pseudomonas aeruginosa; assay: microbe, parasite or virus in culture
# [14] = tested on: Enterococcus hirae; assay: microbe, parasite or virus in culture; details: read-out: Minimum Inhibitory Concentrations
# [15] = tested on: Streptococcus mutans; assay: MIC, panel of human pathogens, standardized NCCLS protocols; format: cell-based; details: read-out: Minimum Inhibitory Concentrations
# [16] = tested on: Streptococcus sobrinus; assay: microbe, parasite or virus in culture; details: read-out: Minimum Inhibitory Concentrations
# [17] = tested on: P. acnes; assay: microbe, parasite or virus in culture; details: Cutibacterium acnes, read-out: MIC90 of Standard Topical Agents
# Method: An in vitro assessment of antibiotic activity in XMP.629 and various known antibiotics against a representative panel of bacterial strains associated with acne was conducted. A broth dilution methodology was employed using guidelines established by National Committee for Clinical Laboratory Standards (NCCLS) for anaerobic organisms to establish an antibacterial profile for XMP.629. Assays to determine the minimal bactericidal concentrations (MBC) and minimal inhibitory concentration (MIC) were conducted for XMP.629 and other known antibiotics.
# Inoculum from a representative panel of bacterial strains associated with acne, such as P. acnes, P. avidum, P. granulosum, and Staphylococcus epidermis was prepared by suspending approximately 5-10 isolated bacterial colonies in pre-reduced MicroScan® Inoculum Water (Dade Behring, Deerfield, Ill.), and growing the bacterial suspension to log phase (approximately 48 hrs). An inoculum of between 1-5×10^6/mL was achieved by adding 100 μL of the suspension to 25 mL Brain Heart Infusion Broth (BHI) (Anaerobe Systems, Morgan Hill, Calif.).
# A stock solution of XMP.629 dissolved in water at a concentration of 4.0 mg/mL was prepared. Dilute solutions of XMP.629 at concentrations ranging from about 1.25 to about 160 μg/mL were made in either water or formulation buffer (130 mM sodium chloride, 0.2% P103 (poloxamer 333), and 0.10% EDTA, pH 7.3).
# Control tubes containing only water or formulation buffer were prepared for each isolate. Initial growth controls were determined by removing 10 μL from the water control tube and diluting it by 100 fold. From this dilution, 10 μL was used for inoculation and for spreading over the surface onto Laked Blood Agar (LBA) (Anaerobe Systems, Morgan Hill, Calif.) plates. The tubes and plates were incubated in an anaerobic atmosphere at 37° C. for 48 h.
# [18] = tested on: Staphylococcus aureus; assay: microbe, parasite or virus in culture
# [19] = tested on: Clostridium difficile; assay: microbe, parasite or virus in culture; details: Clostridioides difficile, read-out: Minimum Inhibitory Concentrations
# [20] = tested on: Propionibacterium acnes; assay: microbe, parasite or virus in culture; details: Cutibacterium acnes, read-out: Minimum Inhibitory Concentrations
# [21] = tested on: Corynebacterium; assay: microbe, parasite or virus in culture; format: cell-based; details: read-out: MIC90 of Standard Topical Agents
# Method: (§2) Control tubes containing only water or formulation buffer were prepared for each isolate. Initial growth controls were determined by removing 10 μL from the water control tube and diluting it by 100 fold. From this dilution, 10 μL was used for inoculation and for spreading over the surface onto Laked Blood Agar (LBA) (Anaerobe Systems, Morgan Hill, Calif.) plates. The tubes and plates were incubated in an anaerobic atmosphere at 37° C. for 48 h. […] MBC50 and 90 values represent where 50 and 90%, respectively, of the tested strain's MBC values are equal to or less than the indicated concentration.
# [22] = tested on: S. aureus; assay: Comparison of XMP.629 with standard topical agents (MIC90/MBC); format: cell-based, Staphylococcus aureus; details: Staphylococcus aureus
# Method: as §2
# [23] = tested on: Enterococcus; format: cell-based
# Method: as §2
compound,measurement,setting,value
O=C(O)c1cn(C2CC2)c2cc(N3CCNCC3)c(F)cc2c1=O [Ciprofloxacin],MIC,[1],64 µg/mL
same,MIC,[2],≤ 1 µg/mL
same,MIC,[3],0.06 µg/mL
same,MIC,[4],≤ 1 µg/mL
same,MIC,[5],≤ 0.063 µg/mL
same,MIC,[6],≤ 1 µg/mL
same,MIC,[7],≤ 1 µg/mL
same,MIC,[8]; Escherichia coli 07:K1,≤ 0.25 µg/mL
same,MIC,[8]; Escherichia coli 0111:B4,≤ 0.063 µg/mL
same,MIC,[9],≤ 1 µg/mL
same,MIC,[10]; Klebsiella pneumoniae 19645,0.13 µg/mL
same,MIC,[10]; Klebsiella pneumoniae 29011,≤ 0.063 µg/mL
same,MIC,[11],1 µg/mL
same,MIC,[12],≤ 1 µg/mL
same,MIC,"[13]; read-out: Minimum Inhibitory Concentrations, Pseudomonas aeruginosa 9027",0.13 µg/mL
same,MIC,"[13]; read-out: Minimum Inhibitory Concentrations, Pseudomonas aeruginosa 19660",0.13 µg/mL
same,MIC,"[13]; read-out: Minimum Inhibitory Concentrations, Pseudomonas aeruginosa 27853",≤ 1 µg/mL
same,MIC,"[13]; read-out: Minimum Inhibitory Concentrations, Pseudomonas aeruginosa XS-65 (MDR)",≤ 1 µg/mL
same,MIC,[14],≤ 1 µg/mL
same,MIC,[15]; Streptococcus mutans 25175,2 µg/mL
same,MIC,[16],2 µg/mL
CN[C@H](CC(C)C)C(=O)N[C@H]1C(=O)N[C@@H](CC(N)=O)C(=O)N[C@H]2C(=O)N[C@H]3C(=O)N[C@H](C(=O)N[C@H](C(=O)O)c4cc(O)cc(O)c4-c4cc3ccc4O)[C@H](O)c3ccc(c(Cl)c3)Oc3cc2cc(c3O[C@@H]2O[C@H](CO)[C@@H](O)[C@H](O)[C@H]2O[C@H]2C[C@](C)(N)[C@H](O)[C@H](C)O2)Oc2ccc(cc2Cl)[C@H]1O [Vancomycin],MIC,[1],> 64 µg/mL
same,MIC90,[17],2 µg/mL
same,MIC,"[18]; BAA38|MRSA, read-out: Minimum Inhibitory Concentrations, Staphylococcus aureus BAA-38 (MRSA)",1 µg/mL
same,MIC,"[18]; read-out: Minimum Inhibitory Concentrations, Staphylococcus aureus 6258",2 µg/mL
same,MIC,"[18]; read-out: Minimum Inhibitory Concentrations, Staphylococcus aureus 11371",1 µg/mL
same,MIC,"[18]; read-out: Minimum Inhibitory Concentrations, Staphylococcus aureus 12598",1.25 µg/mL
same,MIC,"[18]; read-out: Minimum Inhibitory Concentrations, Staphylococcus aureus 19636",≤ 1 µg/mL
same,MIC,[19],1 µg/mL
same,MIC,[20],2 µg/mL
same,MIC90,[21],0.5 µg/mL
same,MIC90,[22],4 µg/mL
same,MIC,[15]; Streptococcus mutans,2 µg/mL
same,MIC90 of Standard Topical Agents,[23],1.0/NE
same,MIC,[16],1 µg/mL
